Results published in patent US20090221559A1 (priority 2005, published 2009).
Where two headings read alike, the source gives them in different places.

Tests used:
[1] = biological target: T1, HCV NS5B polymerase (His-tagged, C-terminal 21 amino acid deleted NS5B, HC-J4) (Hepatitis C virus genotype 1b, UniProt O92972); assay: NS5b polymerase assay (biochemical RdRp assay, 3H-GTP incorporation, SPA beads); set-up: species or system HCV genotype 1b
T1 construct: The cDNA encoding NS5B amino acid 1-570 (HC-J4, genotype 1b); His tag (His6, from pET-21b) (C); made in house; host or cells: E. coli BL21 (DE3)
T1 sequence (O92972 2417-3000, looked up, stated change not applied): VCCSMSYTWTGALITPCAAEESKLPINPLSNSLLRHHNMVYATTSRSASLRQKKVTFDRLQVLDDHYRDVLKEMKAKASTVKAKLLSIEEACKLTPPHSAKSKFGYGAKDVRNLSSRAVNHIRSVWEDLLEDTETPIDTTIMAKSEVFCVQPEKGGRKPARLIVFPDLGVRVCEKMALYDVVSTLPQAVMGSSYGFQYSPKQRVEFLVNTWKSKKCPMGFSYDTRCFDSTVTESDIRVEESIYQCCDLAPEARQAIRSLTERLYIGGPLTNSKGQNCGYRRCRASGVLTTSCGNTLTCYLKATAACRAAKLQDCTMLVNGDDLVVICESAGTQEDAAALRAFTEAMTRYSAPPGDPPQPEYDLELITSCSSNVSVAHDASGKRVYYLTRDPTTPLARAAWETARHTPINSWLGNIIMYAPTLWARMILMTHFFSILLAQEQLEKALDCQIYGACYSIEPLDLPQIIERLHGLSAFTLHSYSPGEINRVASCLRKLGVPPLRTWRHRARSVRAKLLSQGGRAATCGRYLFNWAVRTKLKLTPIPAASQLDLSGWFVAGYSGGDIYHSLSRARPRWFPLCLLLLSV
How it was run: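 3H-GTP incorporation into newly made RNA was captured on SPA beads added in EDTA after 2 h at 25 °C. Compounds in DMSO met preformed enzyme–template complex (200 nM truncated His-NS5B, HC-J4 1b; biotin-oligo(rG13)/poly(rC)) for 15 min at RT, then 600 nM GTP, 5 mM MgCl2, Tris pH 7.5 started polymerization.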

[2] = tested on: HCV replicon RNA replication in Huh-7 luc/neo (Huh-Luc) cells; assay: HCV replicon assay (stable replicon cell reporter assay, luciferase read-out); type: cell-based, HCV type 1b
How it was run: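 Three-day compound exposure used Huh-Luc cells, which harbour an autonomously replicating genotype 1b NS3-NS5B replicon expressing luciferase and neo^R. Luciferase signal served as the replication read-out, and dose-response curves came from several concentrations per compound.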

[3] = NS5B Polymerase Assay IC50 (μM)
[4] = Hepatitis C virus, Huh-7, 72 h, read-out: Replicon Assay EC50 (μM), Huh-Luc cells, incubation of three days, luciferase activity
[5] = NS5B Polymerase Assay IC50, 200 nM enzyme, 3H-GTP incorporation, 2 h at 25° C.
[6] = Hepatitis C virus, Huh-7, 72 h, read-out: Replicon Assay EC50, Huh-Luc cells, three days incubation, luciferase activity
[7] = 200 nM enzyme, 3H-GTP incorporation, 2 h at 25° C., read-out: NS5B Polymerase Assay IC50
[8] = Huh-Luc cells, three days incubation, luciferase activity, read-out: Replicon Assay EC50
[9] = read-out: Replicon Assay EC50, Huh-Luc cells, three days incubation, luciferase activity

Compound	IC50 [1, 5]	EC50 [2, 6]	other results
COc1ccc(C2CC(=O)C3=C(C2)Nc2ccccc2NC3c2cccc(C)c2)cc1 (stereo not drawn) [compound 391]			IC50 [1, 3]: > 42.7 µM; EC50 [2, 4]: 18.5 µM
CCC(=O)N1c2ccccc2NC2=C(C(=O)CC(C)(C)C2)C1c1cc(OC)ccc1OC (stereo not drawn) [compound 60]	> 42.7 µM	17.9 µM	
COc1ccc(C2CC(=O)C3=C(C2)Nc2ccccc2NC3c2cccc(OC)c2OC)cc1OC (stereo not drawn) [compound 401]			IC50 [1, 3]: > 42.7 µM; EC50 [2, 4]: 2.88 µM
COc1ccc(C2CC(=O)C3=C(C2)Nc2ccccc2NC3c2cccc(F)c2)cc1 (stereo not drawn) [compound 327]			IC50 [1, 3]: > 33.3 µM; EC50 [2, 4]: 12.5 µM
CCOc1ccc(C2Nc3ccccc3NC3=C2C(=O)CC(c2ccc(OC)cc2)C3)cc1 (stereo not drawn) [compound 332]			IC50 [1, 3]: > 42.7 µM; EC50 [2, 4]: 9.74 µM
CCCCCC(=O)N1c2ccccc2NC2=C(C(=O)CC(c3ccccc3)C2)C1c1ccccc1F (stereo not drawn) [compound 224]			IC50 [1, 7]: > 33.3 µM; EC50 [2, 8]: 16.1 µM
CCOc1ccc(C2C3=C(CC(C)(C)CC3=O)Nc3ccccc3N2C(=O)C(F)(F)F)cc1 (stereo not drawn) [compound 2]	> 42.7 µM	26.5 µM	
CN(C)c1ccc(C2C3=C(CC(C)(C)CC3=O)Nc3ccccc3N2C(=O)Nc2ccc(Cl)c(Cl)c2)cc1 (stereo not drawn) [compound 76]	> 33.3 µM	6.27 µM	
CC(=O)N1c2ccccc2NC2=C(C(=O)CC(C)(C)C2)C1c1ccc(C)o1 (stereo not drawn) [compound 283]	> 42.7 µM	> 32 µM	
CCN1c2ccccc2NC2=C(C(=O)CC(C)(C)C2)C1c1ccc(Cl)cc1Cl (stereo not drawn) [compound 508, 11-(2,4-dichlorophenyl)-10-ethyl-2,3,4,5,10,11-hexahydro-3,3-dimethyl1H-dibenzo[b,e][1,4]diazepin-1-one]			IC50 [1, 3]: > 42.7 µM; EC50 [2, 4]: 1.37 µM
Cc1ccc(C2C3=C(CC(c4ccccc4F)CC3=O)Nc3ccccc3N2C(=O)c2ccccc2)cc1 (stereo not drawn) [compound 166]			IC50 [1, 7]: > 42.7 µM; EC50 [2, 8]: 3.98 µM
CC(=O)N1c2ccccc2NC2=C(C(=O)CC(C)(C)C2)C1c1ccccc1OCc1ccccc1 (stereo not drawn) [compound 19]	> 42.7 µM		EC50 [2, 9]: > 32 µM
COc1ccc(C2C3=C(CC(c4cccc([N+](=O)[O-])c4)CC3=O)Nc3ccccc3N2C(=O)c2ccccc2)cc1 (stereo not drawn) [compound 221]			IC50 [1, 7]: > 42.7 µM; EC50 [2, 8]: 23.2 µM
CC(=O)N1c2ccccc2NC2=C(C(=O)CC(C)(C)C2)C1c1cccc(O)c1 (stereo not drawn) [compound 117]	> 42.7 µM	> 32 µM	
COc1c(Cl)cc(Cl)cc1C1C2=C(CC(C)(C)CC2=O)Nc2ccccc2N1C(=O)C(F)(F)F (stereo not drawn) [compound 116]	> 42.7 µM	> 32 µM	
CC(=O)N1c2ccccc2NC2=C(C(=O)CC(C)(C)C2)C1c1ccc(Oc2ccccc2)cc1 (stereo not drawn) [compound 134, 10-acetyl-11-(4-phenoxyphenyl)-3,3-dimethyl-2,3,4,5,10,11-hexahydro-1H-dibenzo[b,e][1,4]diazepin-1-one]	47.3 µM	4.64 µM	
COC(=O)c1ccc(C2Nc3ccccc3NC3=C2C(=O)CC(c2ccccc2)C3)cc1 (stereo not drawn) [compound 374]			IC50 [1, 3]: > 42.7 µM; EC50 [2, 4]: 10.1 µM
CC1(C)CC(=O)C2=C(C1)Nc1ccccc1N(C(=O)c1ccccc1)C2c1ccccc1F (stereo not drawn) [compound 94]	> 42.7 µM	3.4 µM	
CN(C)c1ccc(C2C3=C(CC(C)(C)CC3=O)Nc3ccccc3N2C(=O)C(F)(F)F)cc1 (stereo not drawn) [compound 108]	> 42.7 µM	> 32 µM	
COc1cccc(C2C3=C(CC(C)(C)CC3=O)Nc3ccccc3N2C(C)=O)c1 (stereo not drawn) [compound 105]	> 42.7 µM	> 32 µM	
CC(=O)N1c2ccccc2NC2=C(C(=O)CC(c3cccc([N+](=O)[O-])c3)C2)C1c1ccccc1 (stereo not drawn) [compound 234]			IC50 [1, 7]: > 36.2 µM; EC50 [2, 8]: 3.89 µM
CC(=O)N1c2ccccc2NC2=C(C(=O)CC(C)(C)C2)C1c1cc(Cl)ccc1Cl (stereo not drawn) [compound 138, 10-acetyl-11-[2,5-dichlorophenyl]-3,3-dimethyl-2,3,4,5,10,11-hexahydro-1H-dibenzo[b,e][1,4]diazepin-1-one]	> 133 µM	26.7 µM	
CCCCCC(=O)N1c2ccccc2NC2=C(C(=O)CC(c3cccc([N+](=O)[O-])c3)C2)C1c1ccc(OC)c(OC)c1 (stereo not drawn) [compound 174]			IC50 [1, 7]: > 42.7 µM; EC50 [2, 8]: 1.85 µM
CC1(C)CC(=O)C2=C(C1)Nc1ccccc1N(C(=O)C(F)(F)F)C2c1cccc([N+](=O)[O-])c1 (stereo not drawn) [compound 47]	> 42.7 µM	16.4 µM	

Compound	IC50 [1, 5]	EC50 [2, 6]	other results
O=C1C[C@@H](c2ccccc2)CC2=C1[C@H](c1cc3c(cc1Br)OCO3)Nc1ccccc1N2 [compound 481]			IC50 [1, 3]: > 42.7 µM; EC50 [2, 4]: 1.61 µM
CC1(C)CC(=O)C2=C(C1)Nc1ccccc1N(C(=O)Cc1ccccc1)C2c1ccc2c(c1)OCO2 (stereo not drawn) [compound 275]	> 42.7 µM	10.1 µM	
O=C1CCCC2=C1C(c1ccc(Cl)cc1Cl)Nc1ccccc1N2 (stereo not drawn) [compound 421]			IC50 [1, 3]: > 133 µM; EC50 [2, 4]: 51.9 µM
CC1(C)CC(=O)C2=C(C1)Nc1ccccc1N(C(=O)C(F)(F)F)C2c1ccc(-c2ccc([N+](=O)[O-])cc2)o1 (stereo not drawn) [compound 257]	> 42.7 µM	22.4 µM	
CC(=O)N1c2cccc(C#N)c2NC2=C(C(=O)CC(C)(C)C2)C1c1ccc(Cl)cc1Cl (stereo not drawn) [compound 316]	6.97 µM	15.4 µM	
COc1ccc(C2CC(=O)C3=C(C2)Nc2ccccc2NC3c2ccccc2Br)cc1 (stereo not drawn) [compound 390]			IC50 [1, 3]: > 42.7 µM; EC50 [2, 4]: 9.07 µM
COc1ccc(C2C3=C(CC(c4cccs4)CC3=O)Nc3ccccc3N2C(=O)Nc2ccc(Cl)c(Cl)c2)cc1 (stereo not drawn) [compound 287]	> 33.3 µM	5.01 µM	
COc1cccc(C2Nc3ccccc3NC3=C2C(=O)CC(c2ccc(Cl)cc2)C3)c1 (stereo not drawn) [compound 360]			IC50 [1, 3]: > 42.7 µM; EC50 [2, 4]: 11.2 µM
Cc1ccc(C2CC(=O)C3=C(C2)Nc2ccccc2N(C(=O)CCC(=O)O)C3c2ccc(C)cc2)cc1 (stereo not drawn) [compound 161]	29.9 µM	> 25 µM	
COc1ccc(C2C3=C(CC(C)(C)CC3=O)Nc3ccccc3N2C(=O)CC(C)C)cc1 (stereo not drawn) [compound 41]	> 42.7 µM	8.44 µM	
CC1(C)CC(=O)C2=C(C1)Nc1ccccc1N(C(=O)c1ccccc1)C2c1ccccc1Cl (stereo not drawn) [compound 70]	> 42.7 µM	14.6 µM	
CC1(C)CC(=O)C2=C(C1)Nc1ccccc1N(C(=O)c1ccccc1)C2c1ccc(Br)cc1 (stereo not drawn) [compound 74]	> 42.7 µM	> 26.7 µM	
CC1(C)CC(=O)C2=C(C1)Nc1ccccc1NC2c1ccc(OC(F)(F)F)cc1 (stereo not drawn) [compound 434, 11-(4-trifluoromethyloxyphenyl)-3,3-dimethyl-2,3,4,5,10,11-hexahydro-1H-dibenzo[b,e][1,4]diazepin-1-one]			IC50 [1, 3]: > 133 µM; EC50 [2, 4]: 22.9 µM
CC(=O)N1c2ccccc2NC2=C(C(=O)CC(C)(C)C2)C1c1cc(Cl)cc(Cl)c1 (stereo not drawn) [compound 133, 10-acetyl-11-[3,5-dichlorophenyl]-3,3-dimethyl-2,3,4,5,10,11-hexahydro-1H-dibenzo[b,e][1,4]diazepin-1-one]	> 133 µM	11 µM	
COc1ccc([C@@H]2CC(=O)C3=C(C2)Nc2ccccc2N[C@H]3c2coc3ccccc3c2=O)cc1OC [compound 495]			IC50 [1, 3]: > 42.7 µM; EC50 [2, 4]: 3.69 µM
CC1(C)CC(=O)C2=C(C1)Nc1ccccc1N(C(=O)C(F)(F)F)C2c1ccc([N+](=O)[O-])cc1 (stereo not drawn) [compound 89]	> 42.7 µM	5.32 µM	
COc1ccc(C2C3=C(CC(C)(C)CC3=O)Nc3ccccc3N2C(=O)C(F)(F)F)cc1OC (stereo not drawn) [compound 106]	> 42.7 µM	> 32 µM	
CCC(=O)N1c2ccccc2NC2=C(C(=O)CC(c3ccc(OC)cc3)C2)C1c1ccc(OC)cc1 (stereo not drawn) [compound 223]	> 42.7 µM	25 µM	
O=C1CC(c2ccc(Cl)cc2)CC2=C1C(c1cccc(Cl)c1)N(C(=O)c1ccccc1)c1ccccc1N2 (mixture of isomers) [compound 203]			IC50 [1, 7]: > 33.3 µM; EC50 [2, 8]: 9.94 µM
CC(=O)N1c2ccccc2NC2=C(C(=O)CC(C)(C)C2)C1c1cccc(Oc2ccccc2Br)c1 (stereo not drawn) [compound 149, 10-acetyl-11-[3-(2-bromophenoxy)phenyl]-3,3-dimethyl-2,3,4,5,10,11-hexahydro-1H-dibenzo[b,e][1,4]diazepin-1-one]	30.4 µM	1.78 µM	
CC1(C)CC(=O)C2=C(C1)Nc1ccccc1NC2c1ccc(F)cc1F (stereo not drawn) [compound 441, 11-(2,4-difluorophenyl)-3,3-dimethyl-2,3,4,5,10,11-hexahydro-1H-dibenzo[b,e][1,4]diazepin-1-one]			IC50 [1, 3]: > 133 µM; EC50 [2, 4]: > 100 µM
CC(=O)N1c2ccccc2NC2=C(C(=O)CC(c3ccccc3OCc3ccccc3)C2)C1c1cccc(OCc2ccccc2)c1 (single isomer, unassigned) [compound 189]	> 42.7 µM		EC50 [2, 9]: 3.99 µM
CCCCOc1ccc(C2C3=C(CC(C)(C)CC3=O)Nc3ccccc3N2C(=O)C(C)C)cc1 (stereo not drawn) [compound 14]	> 33.3 µM	10.6 µM	
CC(=O)N1c2ccccc2NC2=C(C(=O)CC(C)(C)C2)C1c1ccc(-c2cccc(C(=O)O)c2)o1 (stereo not drawn) [compound 280]	> 42.7 µM	> 32 µM	
